Data as given in the NIST ThermoML archive (doi:10.1016/j.jct.2004.12.014).

Key:
[1] = xn = mol fraction of the nth substance listed; conditions: 318.15 K, 101 kPa, Liquid
[2] = excess molar enthalpy (molar enthalpy of mixing); xn = mol fraction of the nth substance listed; conditions: 318.15 K, 101 kPa, Liquid
[3] = 318.15 K; 101.33 kPa; Liquid
[4] = refractive index (Na D-line) (dimensionless); conditions: 318.15 K; 101.33 kPa; Liquid; Standard Abbe refractometry

CCCCCCCCCCCCC [tridecane] + CCCOC(=O)CC
Conditions	excess molar enthalpy [kJ/mol]	excess molar volume [m3/mol]
[1], x2 = 0.1068	–	3.54e-07
[1], x2 = 0.2003	–	6.1e-07
[1], x2 = 0.2831	–	7.8e-07
[1], x2 = 0.3626	–	8.99e-07
[1], x2 = 0.4343	–	9.83e-07
[1], x2 = 0.4988	–	1.001e-06
[1], x2 = 0.5633	–	1.013e-06
[1], x2 = 0.6197	–	9.68e-07
[1], x2 = 0.6738	–	9.29e-07
[1], x2 = 0.7241	–	8.44e-07
[1], x2 = 0.7705	–	7.66e-07
[1], x2 = 0.8135	–	6.6e-07
[1], x2 = 0.8558	–	5.36e-07
[1], x2 = 0.8941	–	4.18e-07
[1], x2 = 0.9306	–	2.67e-07
[1], x2 = 0.9641	–	1.43e-07
[2], x2 = 0.0771	0.345	–
[2], x2 = 0.1623	0.643	–
[2], x2 = 0.248	0.909	–
[2], x2 = 0.3288	1.1	–
[2], x2 = 0.4032	1.23	–
[2], x2 = 0.471	1.3	–
[2], x2 = 0.5295	1.32	–
[2], x2 = 0.5719	1.3	–
[2], x2 = 0.5818	1.29	–
[2], x2 = 0.6224	1.25	–
[2], x2 = 0.6662	1.18	–
[2], x2 = 0.7127	1.09	–
[2], x2 = 0.7593	0.971	–
[2], x2 = 0.8089	0.834	–
[2], x2 = 0.8585	0.672	–
[2], x2 = 0.9084	0.475	–
[2], x2 = 0.9562	0.254	–

CCCCCCCCCCCCCCC [pentadecane] + CCCCOC(=O)CC
Conditions	excess molar enthalpy [kJ/mol]	excess molar volume [m3/mol]
[1], x2 = 0.0505	–	1.65e-07
[1], x2 = 0.0965	–	3.01e-07
[1], x2 = 0.197	–	5.5e-07
[1], x2 = 0.2885	–	7.14e-07
[1], x2 = 0.372	–	8.22e-07
[1], x2 = 0.4383	–	8.58e-07
[1], x2 = 0.5036	–	8.89e-07
[1], x2 = 0.5649	–	8.8e-07
[1], x2 = 0.6245	–	8.56e-07
[1], x2 = 0.6765	–	8.1e-07
[1], x2 = 0.7278	–	7.63e-07
[1], x2 = 0.7734	–	6.88e-07
[1], x2 = 0.817	–	5.89e-07
[1], x2 = 0.8567	–	4.91e-07
[1], x2 = 0.897	–	3.82e-07
[1], x2 = 0.9328	–	2.79e-07
[1], x2 = 0.9665	–	1.56e-07
[2], x2 = 0.0761	0.33	–
[2], x2 = 0.1691	0.632	–
[2], x2 = 0.2538	0.883	–
[2], x2 = 0.3371	1.06	–
[2], x2 = 0.4082	1.17	–
[2], x2 = 0.4663	1.22	–
[2], x2 = 0.5154	1.23	–
[2], x2 = 0.5563	1.22	–
[2], x2 = 0.5938	1.21	–
[2], x2 = 0.6011	1.2	–
[2], x2 = 0.6427	1.16	–
[2], x2 = 0.6861	1.09	–
[2], x2 = 0.7321	1.01	–
[2], x2 = 0.7784	0.9	–
[2], x2 = 0.8262	0.752	–
[2], x2 = 0.8732	0.594	–
[2], x2 = 0.9184	0.409	–
[2], x2 = 0.9612	0.212	–

CCCCCCCCCCCCCCC [pentadecane] + CCCOC(=O)CC
Conditions	excess molar enthalpy [kJ/mol]	excess molar volume [m3/mol]
[1], x2 = 0.0571	–	1.92e-07
[1], x2 = 0.121	–	3.65e-07
[1], x2 = 0.2189	–	6.37e-07
[1], x2 = 0.3124	–	8.36e-07
[1], x2 = 0.3919	–	9.5e-07
[1], x2 = 0.4644	–	1.011e-06
[1], x2 = 0.5327	–	1.042e-06
[1], x2 = 0.5945	–	1.032e-06
[1], x2 = 0.6507	–	9.93e-07
[1], x2 = 0.7004	–	9.51e-07
[1], x2 = 0.7486	–	8.75e-07
[1], x2 = 0.7919	–	7.84e-07
[1], x2 = 0.8316	–	6.85e-07
[1], x2 = 0.8692	–	5.77e-07
[1], x2 = 0.9037	–	4.49e-07
[1], x2 = 0.9384	–	3.2e-07
[1], x2 = 0.9689	–	1.72e-07
[2], x2 = 0.0908	0.406	–
[2], x2 = 0.2077	0.809	–
[2], x2 = 0.3159	1.11	–
[2], x2 = 0.4097	1.29	–
[2], x2 = 0.481	1.38	–
[2], x2 = 0.538	1.4	–
[2], x2 = 0.5826	1.39	–
[2], x2 = 0.6208	1.37	–
[2], x2 = 0.6333	1.35	–
[2], x2 = 0.6724	1.29	–
[2], x2 = 0.7191	1.19	–
[2], x2 = 0.7668	1.07	–
[2], x2 = 0.8087	0.938	–
[2], x2 = 0.8594	0.756	–
[2], x2 = 0.9086	0.537	–
[2], x2 = 0.96	0.274	–

CCOC(=O)CC [ethyl propanoate]
Conditions	mass density [kg/m3]	refractive index
[3]	860.98	–
[4]	–	1.3711
